Measured values taken from patent publication US11345666B2, “Phenyl and pyridinyl substituted imidazoles as modulators of RORγT” (Janssen Pharmaceutica NV, priority 2018, dated 2022).

Key:
full-length human RORγt = full-length human RORγt (Homo sapiens (Human), UniProt P51449); assay: RORγt (full-length human) reporter assay, conditions A or B; assay type: cell-based; conditions: for IC50: HEK293T cells, read-out: RORγt (FL) Reporter Assay A or B, IC50; for inhibition at 6 µM: read-out: RORγt (FL) Reporter Assay A or B, % inhibition @ 6 μM, 6 μM compound concentration; for inhibition at 3 µM: 3 μM compound concentration (*); for inhibition at 2 µM: 2 μM compound concentration (**)
Outline: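 HEK293T cells transiently co-transfected (PEI) with GAL4-DBD–RORγt, GAL4-firefly luciferase and CMV-Renilla reporters; condition A 35,000 cells/well, 170.5 ng DNA/well; condition B 8750 cells/well, 42.6 ng DNA/well.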

[1] = biological target: human RORγt ligand binding domain (RORγt LBD) (Homo sapiens (Human), UniProt P51449); assay: RORγt ThermoFluor assay
Outline: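 Thermal shift of His-tagged human RORγt LBD (0.065 mg/mL) with 60 μM 1,8-ANS in 100 mM Hepes pH 7.0, 10 mM NaCl, 2.5 mM GSH, 0.002% Tween-20, heated at 1° C./min. Compounds in 1:2 series from a 10 mM DMSO stock; KD estimated from ΔTm using protein unfolding thermodynamics.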

[2] = read-out: RORγt (FL) Reporter Assay A or B, % inhibition

Sequence of full-length human RORγt (P51449 other isoform, or with tags, fused parts or gaps): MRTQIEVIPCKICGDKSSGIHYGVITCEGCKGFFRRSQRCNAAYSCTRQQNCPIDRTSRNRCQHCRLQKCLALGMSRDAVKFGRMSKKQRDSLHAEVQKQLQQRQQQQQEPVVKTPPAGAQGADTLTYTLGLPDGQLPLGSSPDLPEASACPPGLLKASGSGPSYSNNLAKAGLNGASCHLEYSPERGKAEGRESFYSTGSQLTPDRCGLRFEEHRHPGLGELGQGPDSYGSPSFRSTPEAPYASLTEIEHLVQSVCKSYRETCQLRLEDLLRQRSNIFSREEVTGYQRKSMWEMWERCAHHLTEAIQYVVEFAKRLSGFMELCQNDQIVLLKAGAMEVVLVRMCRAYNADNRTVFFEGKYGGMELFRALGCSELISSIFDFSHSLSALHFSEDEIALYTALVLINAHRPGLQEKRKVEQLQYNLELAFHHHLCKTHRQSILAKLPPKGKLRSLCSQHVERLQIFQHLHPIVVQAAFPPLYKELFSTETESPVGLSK
Sequence of human RORγt ligand binding domain (RORγt LBD) (P51449 other isoform, or with tags, fused parts or gaps): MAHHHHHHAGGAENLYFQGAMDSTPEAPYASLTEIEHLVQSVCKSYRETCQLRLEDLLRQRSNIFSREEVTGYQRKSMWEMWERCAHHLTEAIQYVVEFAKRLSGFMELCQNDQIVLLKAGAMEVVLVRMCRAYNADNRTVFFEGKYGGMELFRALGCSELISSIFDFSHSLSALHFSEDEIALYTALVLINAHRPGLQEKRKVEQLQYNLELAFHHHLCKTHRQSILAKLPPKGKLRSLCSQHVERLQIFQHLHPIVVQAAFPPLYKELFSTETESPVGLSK

IC50 (full-length human RORγt) [nM]	inhibition at 6 µM (full-length human RORγt) [%]	Kd [1] [nM]	inhibition at 3 µM (full-length human RORγt; [2]) [%]	inhibition at 2 µM (full-length human RORγt; [2]) [%]	inhibition at 0.22 µM (full-length human RORγt; 0.22 μM compound concentration (******), read-out: RORγt (FL) Reporter Assay A or B, % inhibition) [%]	inhibition at 0.07 µM (full-length human RORγt; 0.07 μM compound concentration (*******), read-out: RORγt (FL) Reporter Assay A or B, % inhibition) [%]	inhibition at 1 µM (full-length human RORγt; 1 μM compound concentration (***), read-out: RORγt (FL) Reporter Assay A or B, % inhibition) [%]	Structure (SMILES)
240	102	31						CCc1nc(C(=O)NC[C@]2(O)CC[C@@H](S(C)(=O)=O)CC2)c(C#N)n1-c1ncc(CC(C)(C)C(F)(F)F)cc1OC [Example 123, 5-Cyano-2-ethyl-N-(((1s,4s)-1-hydroxy-4-(methylsulfonyl)cyclohexyl)methyl)-1-(3-methoxy-5-(3,3,3-trifluoro-2,2-dimethylpropyl)pyridin-2-yl)-1H-imidazole-4-carboxamide]
18		4			65			CCc1nc(C(=O)NC[C@H]2CC[C@H](S(C)(=O)=O)CC2)c(Cl)n1-c1ccc(CC(C)(C)C(F)(F)F)cc1F [Example 101, 5-Chloro-2-ethyl-1-(2-fluoro-4-(3,3,3-trifluoro-2,2-dimethylpropyl)phenyl)-N-(((1r,4r)-4-(methylsulfonyl)cyclohexyl)methyl)-1H-imidazole-4-carboxamide]
1.8		3.3				90		CCc1nc(C(=O)NC[C@H]2CC[C@H](S(C)(=O)=O)CC2)c(C)n1-c1ccc(CC(C(F)(F)F)C(F)(F)F)cc1F [Example 110, 2-Ethyl-1-(2-fluoro-4-(3,3,3-trifluoro-2-(trifluoromethyl)propyl)phenyl)-5-methyl-N-(((r,4r)-4-(methylsulfonyl)cyclohexyl)methyl)-1H-imidazole-4-carboxamide]
720	96	190						CCc1nc(C(=O)NC[C@H]2CC[C@H](S(C)(=O)=O)CC2)c(C#N)n1-c1ncc(CCC(F)(F)F)cc1OC [Example 119, 5-Cyano-2-ethyl-1-(3-methoxy-5-(3,3,3-trifluoropropyl)pyridin-2-yl)-N-(((1r,4r)-4-(methylsulfonyl)cyclohexyl)methyl)-1H-imidazole-4-carboxamide]
1200	72	290						CCc1nc(C(=O)NC[C@]2(O)CC[C@@H](S(C)(=O)=O)CC2)c(C#N)n1-c1ccc(CCC(F)(F)F)cc1F [Example 95, 5-Cyano-2-ethyl-1-(2-fluoro-4-(3,3,3-trifluoropropyl)phenyl)-N-(((1s,4s)-1-hydroxy-4-(methylsulfonyl)cyclohexyl)methyl)-1H-imidazole-4-carboxamide]
1400	75	450						CCc1nc(C(=O)NC[C@]2(O)CC[C@@H](S(C)(=O)=O)CC2)c(C(N)=O)n1-c1ccc(CCC(F)(F)F)cc1F [Example 96, 2-Ethyl-1-(2-fluoro-4-(3,3,3-trifluoropropyl)phenyl)-N-(((1s,4s)-1-hydroxy-4-(methylsulfonyl)cyclohexyl)methyl)-1H-imidazole-4,5-dicarboxamide]
470		97	73					Cc1nc(C(=O)NC[C@H]2CC[C@H](S(C)(=O)=O)CC2)cn1-c1ccc(CC(C)(C)C(F)(F)F)cc1OC(F)F [Example 131, 1-(2-(Difluoromethoxy)-4-(3,3,3-trifluoro-2,2-dimethylpropyl)phenyl)-2-methyl-N-(((1r,4r)-4-(methylsulfonyl)cyclohexyl)methyl)-1H-imidazole-4-carboxamide]
96		7					94	CCc1nc(C(=O)NC[C@H]2CC[C@H](S(C)(=O)=O)CC2)c(Cl)n1-c1ncc(C[C@@H](C)C(F)(F)F)cc1OC(F)F (single isomer, unassigned) [Example 78, 5-Chloro-1-(3-(difluoromethoxy)-5-((R*)-3,3,3-trifluoro-2-methylpropyl)pyridin-2-yl)-2-ethyl-N-(((1r,4R)-4-(methylsulfonyl)cyclohexyl)methyl)-1H-imidazole-4-carboxamide]
44		8.3		88				CCc1nc(C(=O)NC[C@H]2CC[C@H](S(C)(=O)=O)CC2)c(C#N)n1-c1ccc(CC(C)(C)C(F)(F)F)cc1OC(F)(F)F [Example 113, 5-Cyano-2-ethyl-N-(((1r,4r)-4-(methylsulfonyl)cyclohexyl)methyl)-1-(4-(3,3,3-trifluoro-2,2-dimethylpropyl)-2-(trifluoromethoxy)phenyl)-1H-imidazole-4-carboxamide]
540		65		73				COc1cc(CC(C)(C)C(F)(F)F)ccc1-n1cc(C(=O)NC[C@]2(O)CC[C@@H](S(C)(=O)=O)CC2)nc1C [Example 130, N-(((1s,4s)-1-hydroxy-4-(methylsulfonyl)cyclohexyl)methyl)-1-(2-methoxy-4-(3,3,3-trifluoro-2,2-dimethylpropyl)phenyl)-2-methyl-1H-imidazole-4-carboxamide]
84	105	37						CCc1nc(C(=O)NC[C@]2(C#N)CC[C@@H](S(C)(=O)=O)CC2)c(C#N)n1-c1ncc(CC(C)(C)C(F)(F)F)cc1OC [Example 124, 5-Cyano-N-(((1s*,4s*)-1-cyano-4-(methylsulfonyl)cyclohexyl)methyl)-2-ethyl-1-(3-methoxy-5-(3,3,3-trifluoro-2,2-dimethylpropyl)pyridin-2-yl)-1H-imidazole-4-carboxamide]

The remaining lines, values behind:

Structure (SMILES)	IC50 (full-length human RORγt) [nM]	inhibition at 6 µM (full-length human RORγt) [%]	Kd [1] [nM]	inhibition at 3 µM (full-length human RORγt; [2]) [%]	inhibition at 2 µM (full-length human RORγt; [2]) [%]	inhibition at 0.22 µM (full-length human RORγt; 0.22 μM compound concentration (******), read-out: RORγt (FL) Reporter Assay A or B, % inhibition) [%]	inhibition at 0.07 µM (full-length human RORγt; 0.07 μM compound concentration (*******), read-out: RORγt (FL) Reporter Assay A or B, % inhibition) [%]	inhibition at 1 µM (full-length human RORγt; 1 μM compound concentration (***), read-out: RORγt (FL) Reporter Assay A or B, % inhibition) [%]
CCc1nc(C(=O)NC[C@]2(O)CC[C@@H](S(C)(=O)=O)CC2)c(F)n1-c1ccc(CCC(F)(F)F)cc1OC [Example 14, 2-Ethyl-5-fluoro-N-(((1s,4s)-1-hydroxy-4-(methylsulfonyl)cyclohexyl)methyl)-1-(2-methoxy-4-(3,3,3-trifluoropropyl)phenyl)-1H-imidazole-4-carboxamide]	320	83	83					
CCc1nc(C(=O)NC[C@@]2(O)CC[C@H](S(C)(=O)=O)C[C@@H]2O)c(Cl)n1-c1ncc(CC(C)(C)C(F)(F)F)cc1OC(F)F (stereo in doubt) [Example 61, 5-Chloro-1-(3-(difluoromethoxy)-5-(3,3,3-trifluoro-2,2-dimethylpropyl)pyridin-2-yl)-N-(((1S*,2S*,4S*)-1,2-dihydroxy-4-(methylsulfonyl)cyclohexyl)methyl)-2-ethyl-1H-imidazole-4-carboxamide]	110		46	90				
COc1cc(N[C@H](C)C(F)(F)F)ccc1-n1c(C(C)(C)C)nc(C(=O)NC[C@H]2CC[C@H](S(C)(=O)=O)CC2)c1Cl [Example 10, 2-(tert-Butyl)-5-chloro-1-(2-methoxy-4-(((R)-1,1,1-trifluoropropan-2-yl)amino)phenyl)-N-(((1r,4R)-4-(methylsulfonyl)cyclohexyl)methyl)-1H-imidazole-4-carboxamide]	57		6.1		104			
CCc1nc(C(=O)NC[C@H]2CC[C@H](S(C)(=O)=O)CC2)c(F)n1-c1ccc(CC(C)(C)C(F)(F)F)cc1OC(F)F [Example 34, 1-(2-(Difluoromethoxy)-4-(3,3,3-trifluoro-2,2-dimethylpropyl)phenyl)-2-ethyl-5-fluoro-N-(((1r,4r)-4-(methylsulfonyl)cyclohexyl)methyl)-1H-imidazole-4-carboxamide]	37		3.5		98			
CCc1nc(C(=O)NC[C@]2(O)CC[C@@H](S(C)(=O)=O)C[C@H]2O)c(Cl)n1-c1ncc(CC(C)(C)C(F)(F)F)cc1OC(F)F (stereo in doubt) [Example 60, 5-Chloro-1-(3-(difluoromethoxy)-5-(3,3,3-trifluoro-2,2-dimethylpropyl)pyridin-2-yl)-N-(((1R*,2R*,4R*)-1,2-dihydroxy-4-(methylsulfonyl)cyclohexyl)methyl)-2-ethyl-1H-imidazole-4-carboxamide]	190		34	86				
CCc1nc(C(=O)NC[C@H]2CC[C@H](S(C)(=O)=O)CC2)c(F)n1-c1ccc(CCC(F)(F)F)cc1OC [Example 13, 2-Ethyl-5-fluoro-1-(2-methoxy-4-(3,3,3-trifluoropropyl)phenyl)-N-(((1r,4r)-4-(methylsulfonyl)cyclohexyl)methyl)-1H-imidazole-4-carboxamide]	140	95	25					
CCc1nc(C(=O)NC[C@H]2CC[C@H](S(C)(=O)=O)CC2)c(Cl)n1-c1ncc(CC(C(F)(F)F)C(F)(F)F)cc1OC(F)F [Example 63, 5-Chloro-1-(3-(difluoromethoxy)-5-(3,3,3-trifluoro-2-(trifluoromethyl)propyl)pyridin-2-yl)-2-ethyl-N-(((1r,4r)-4-(methylsulfonyl)cyclohexyl)methyl)-1H-imidazole-4-carboxamide]	47		7.3	95				
[2H]C([2H])([2H])Oc1cc(CCC(F)(F)F)ccc1-n1c(CC)nc(C(=O)NC[C@]2(O)CC[C@@H](S(C)(=O)=O)CC2)c1C#N [Example 30, 5-Cyano-2-ethyl-N-(((1s,4s)-1-hydroxy-4-(methylsulfonyl)cyclohexyl)methyl)-1-(2-(methoxy-d3)-4-(3,3,3-trifluoropropyl)phenyl)-1H-imidazole-4-carboxamide]	320	96	44					
